According to patent publication US7034024B1, “Product inhibiting transduction of G heterotrimeric protein signals combined with another anti-cancer agent for therapeutic use in cancer treatment” (Societe de Conseils de Recherches et d'Applications …, priority 1999, dated 2006):

Test system: Mia-Paca2 cells (human pancreatic cancer cells)
Assay: Measurement of cell proliferation in vitro (WST1 colorimetric test, polyhema-coated plates)
Format: cell-based
Design: Observed values (living cells): scale not given here
Conditions: for Compound B4 alone (observed value of living cells) / Compound B2 alone (observed value of living cells) / Compound B3 alone (observed value of living cells): 0 nM = 100; for Compound B5 alone (observed value of living cells) / Compound B1 alone (observed value of living cells): 0 μM = 100
Method: The cell line Mia-Paca2 (human pancreatic cancer cells) was acquired from the American Tissue Culture Collection (Rockville, Md., USA).
The Mia-Paca2 cells (1500 cells/wells) are cultured in 96-well plates pre-coated with polyhema (Sigma) which allows only the growth of cells presenting a tumorigenic phenotype.
On day 0, these cells are seeded in 90 μl of Dulbecco's modified Eagle medium (Gibco-Brl, Cergy-Pontoise, France) completed with 10% of foetal calf serum inactivated by heating (Gibco-Brl, Cergy-Pontoise, France), 50000 units/l of penicillin and 50 mg/l streptomycin (Gibco-Brl, Cergy-Pontoise, France), and 2 mM of glutamin (Gibco-Brl, Cergy-Pontoise, France).
The cells were treated with increasing concentrations of two products alone or combined in a matrix, i.e.: on day 1, with the first product for 96 hours and on day 2 with the second product for 72 hours. According to method α, the transduction inhibitor of heterotrimeric G protein signals with which the anti-cancer agent is combined is administered before the latter, then according to method β, it is done so after.
At the end of this period, quantification of cell proliferation is evaluated by a colorimetric test based on the cleavage of the tetrazolium salt WST1 by mitochondrial dehydrogenases in the living cells leading to the formation of formazan (Boehringer Mannheim, Meylan, France). These tests are carried out in duplicate with 4 measurements for each single product and for each combination tested. This allows the number of living cells at the end of each treatment to be determined, i.e. the observed value. The calculated value of the living cells for each treatment corresponds to the multiplication of the observed values of the effects of separate products. These observed and calculated values are compared for each combination. When the observed value of living cells is lower than the calculated value of the living cells, a synergy is considered to exist. When the observed value is equal to the calculated value, a additive effect is considered to exist. When the observed value is greater than the calculated value, an antagonism is considered to exist.

Cn1cncc1C(N)(c1ccc(Cl)cc1)c1ccc2c(c1)c(-c1cccc(Cl)c1)cc(=O)n2C (racemic) [compound B4, (±)-4-(3-chlorophenyl)-6-[(4-chlorophenyl)-amino-(1-methyl-1H-imidazol-5-yl)methyl]-1-methyl-2(1H)quinolinone, reference compound] was tested, and the “Compound B4 alone (observed value of living cells)” value (“Compound B4 alone” for short) (B4 40 nM alone, Table IV) was 104 ± 2.0, the “Compound B4 alone” value (B4 0.2 μM alone, Table IV) was 90 ± 9.0 and the “Compound B4 alone” value (B4 1 μM alone, Table IV) was 72 ± 3.
CC(=O)O[C@H]1C(=O)[C@@]2(C)[C@H]([C@H](OC(=O)c3ccccc3)[C@]3(O)C[C@H](OC(=O)[C@H](O)[C@@H](NC(=O)c4ccccc4)c4ccccc4)C(C)=C1C3(C)C)[C@]1(OC(C)=O)CO[C@@H]1C[C@@H]2O [compound B2, taxol, reference compound] was tested, and the “Compound B2 alone (observed value of living cells)” value (“Compound B2 alone” below) (B2 0.8 nM alone, Table II) was 100 ± 5.8, the “Compound B2 alone” value (B2 4 nM alone, Table II) was 100 ± 0.3 and the “Compound B2 alone” value (B2 20 nM alone, Table II) was 60 ± 10.6.
Cc1ccccc1-c1cn2c(n1)C(CC1CCCCC1)N(C(=O)C(N)CS)CC2 (stereo not shown) [compound A1, 7-(2-amino-1-oxo-3-thiopropyl)-8-(cyclohexylmethyl)-2-(2-methylphenyl)-5,6,7,8-tetrahydroimidazo[1,2a]pyrazine] was tested, and the “Observed values (living cells)” value (A1 20 μM alone (B1 0 μM), method α, n = 4, Table I) was 51 ± 8.9, the “Observed values (living cells)” value (A1 20 μM alone (B2 0 nM), method α, n = 3, Table II) was 49 ± 7.7 and the “Observed values (living cells)” value (A1 20 μM alone (B3 0 nM), method α, n = 3, Table III) was 65 ± 7.3.
For “4-(2-bromophenyl)-1-(2-(1-((4-cyano-3-methoxy)phenylmethyl)-imidazo-5-yl)-1-oxoethyl)-1,2-dihydro-8-fluoro-imidazo[1,2a][1,4]-benzodiazepine [compound B5]”, the “Compound B5 alone (observed value of living cells)” value (B5 0.2 μM alone, Table V) was 86 ± 0.9 and the “Compound B5 alone (observed value of living cells)” value (B5 1 μM alone, Table V) was 63 ± 2.6.
With Nc1ccn([C@@H]2O[C@H](CO)[C@@H](O)C2(F)F)c(=O)n1 [compound B3, gemcitabine, reference compound] the “Compound B3 alone (observed value of living cells)” value (shortened to “Compound B3 alone”) (B3 4 nM alone, Table III) was 95 ± 9.8, the “Compound B3 alone” value (B3 20 nM alone, Table III) was 72 ± 11.5 and the “Compound B3 alone” value (B3 100 nM alone, Table III) was 62 ± 1.9.
In the case of “1-(2-(1-((4-cyano)phenylmethyl)imidazol-4-yl)-1-oxoethyl-2,5-dihydro-4-(2-methoxyphenyl)imidazo[1,2c][1,4]benzodiazepine [compound B1]”, the “Compound B1 alone (observed value of living cells)” value (“Compound B1 alone” for short) (B1 0.04 μM alone, Table I) is reported as 94 ± 2.3, the “Compound B1 alone” value (B1 0.2 μM alone, Table I) is reported as 80 ± 4.2 and the “Compound B1 alone” value (B1 1 μM alone, Table I) is reported as 68 ± 2.3.
For NC(CS)C(=O)N1CCn2cc(-c3ccccc3)nc2C1CC1CCCCC1 (stereo not shown) [compound A2, 7-(2-amino-1-oxo-3-thiopropyl)-8-(cyclohexylmethyl)-2-phenyl-5,6,7,8-tetrahydroimidazo[1,2a]pyrazine], the “Observed values (living cells)” value (A2 20 μM alone (B4 0 nM), method β, n = 2, Table IV) was 42 ± 11.0 and the “Observed values (living cells)” value (A2 20 μM alone (B5 0 μM), method β, n = 3, Table V) was 44 ± 6.4.
